Reference: US20230263792A1, “USE OF 2,3,5-SUBSTITUTED THIOPHENE COMPOUND FOR PREVENTING, ALLEVIATION, OR TREATING MASTOCYTOSIS” (PHAROS IBIO CO., LTD, priority 2020, published 2023)

What was measured:
KIT (D816V) = target: T1, KIT (D816V) (Homo sapiens, UniProt P10721, D816V); test: Kinase binding assay (Kd, qPCR detection)
T1 construct: T7 phage fusion or DNA label for qPCR detection; made in house; host or cells: T7 phage in E. coli BL21-derived host, or HEK-293 cells (both named)
Protocol: (§1) A kinase-tagged T7 phage strain was prepared from an E. coli host derived from a BL21 strain. E. coli was grown in log-phase, infected with T7 phage, and then incubated with shaking at 32° C. until lysis. The lysates were centrifuged and filtered to remove cell debris. Thereafter, the kinase produced in HEK-293 cells was labeled with DNA for qPCR detection. Streptavidin-coated magnetic beads were treated with biotinylated small molecule ligand for 30 minutes at room temperature to produce affinity resins for kinase assay. The liganded beads were blocked with excess biotin and washed with blocking buffer (SeaBlock(Pierce), 1% BSA, 0.05% Tween 20, 1 mM DTT) to remove unbound ligand and to reduce nonspecific binding. Binding reactions were induced by combining kinase, ligand affinity beads and PHI-101 in 1× binding buffer (20% SeaBlock, 0.17× PBS, 0.05% Tween 20, 6 mM DTT). PHI-101 was prepared as a 111X stock in 100% DMSO. The binding constant (Kd) was determined using an 11-point 3-fold compound dilution series with three DMSO control points. All compounds for Kd measurements were dispensed by acoustic transfer (non-contact dispensing) in 100% DMSO. The compounds were then diluted directly into the assays such that the final concentration of DMSO was 0.9%. All reactions were performed in polypropylene 384-well plates at a final volume of 0.02 ml. The assay plates were incubated at room temperature with shaking for 1 hour and the affinity beads were washed with wash buffer (1× PBS, 0.05% Tween 20). The beads were then re-suspended in elution buffer (1× PBS, 0.05% Tween 20, 0.5 μM non-biotinylated affinity ligand) and incubated at room temperature with shaking for 30 minutes. The kinase concentration in the eluates was measured by qPCR.
(§2) 11-point 3-fold serial dilutions of each test compound were prepared in 100% DMSO at 100×final test concentration and then diluted to 1× in the assay (final DMSO concentration=1%). Most Kd values were determined using a compound top concentration=30,000 nM. If the initial Kd determined was <0.5 nM (lowest concentration tested), the measurement was repeated with a serial dilution starting at a lower top concentration.
(§3) The Kd value of c-kit protein was calculated with a standard dose-response curve (Equation 1) using the Hill equation.
(§4) The Hill Slope was set to −1. Curves were fitted using a non-linear least square fit with the Levenberg-Marquardt algorithm.

KIT (A829P) = target: T2, KIT (A829P) (Homo sapiens, UniProt P10721, A829P); test: Kinase binding assay (Kd, qPCR detection)
T2 construct: T7 phage fusion or DNA label for qPCR detection; made in house; host or cells: T7 phage in E. coli BL21-derived host, or HEK-293 cells (both named)
T2 sequence (P10721 26-976 A829P): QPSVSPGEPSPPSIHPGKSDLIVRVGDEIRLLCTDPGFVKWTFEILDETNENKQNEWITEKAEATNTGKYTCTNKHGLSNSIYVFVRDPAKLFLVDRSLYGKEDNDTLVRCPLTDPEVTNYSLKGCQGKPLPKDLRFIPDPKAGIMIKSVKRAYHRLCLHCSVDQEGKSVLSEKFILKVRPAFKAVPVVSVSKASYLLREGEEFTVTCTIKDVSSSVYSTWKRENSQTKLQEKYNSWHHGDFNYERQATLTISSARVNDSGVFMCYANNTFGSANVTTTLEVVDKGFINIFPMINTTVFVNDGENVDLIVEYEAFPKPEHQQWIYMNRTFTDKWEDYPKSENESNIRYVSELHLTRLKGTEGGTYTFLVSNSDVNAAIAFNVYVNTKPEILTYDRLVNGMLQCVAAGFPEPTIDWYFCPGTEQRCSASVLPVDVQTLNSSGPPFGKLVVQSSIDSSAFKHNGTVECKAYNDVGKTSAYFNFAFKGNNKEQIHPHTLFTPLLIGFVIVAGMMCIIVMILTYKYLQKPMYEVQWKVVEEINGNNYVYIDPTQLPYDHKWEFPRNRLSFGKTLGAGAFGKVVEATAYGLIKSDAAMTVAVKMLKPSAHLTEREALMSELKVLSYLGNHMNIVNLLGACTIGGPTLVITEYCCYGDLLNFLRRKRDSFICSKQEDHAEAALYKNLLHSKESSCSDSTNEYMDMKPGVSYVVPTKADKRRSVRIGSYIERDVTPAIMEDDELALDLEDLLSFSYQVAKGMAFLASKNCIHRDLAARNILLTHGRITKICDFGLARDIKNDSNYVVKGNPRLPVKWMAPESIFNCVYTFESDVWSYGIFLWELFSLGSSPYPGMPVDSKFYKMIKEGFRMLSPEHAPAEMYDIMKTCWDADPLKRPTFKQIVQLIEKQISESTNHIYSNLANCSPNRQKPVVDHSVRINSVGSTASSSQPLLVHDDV
Protocol: as §1, §2, §3, §4

KIT (V559D, T670I) = target: T3, KIT (V559D, T670I) (Homo sapiens, UniProt P10721, T670I/V559D); test: Kinase binding assay (Kd, qPCR detection)
T3 construct: T7 phage fusion or DNA label for qPCR detection; made in house; host or cells: T7 phage in E. coli BL21-derived host, or HEK-293 cells (both named)
T3 sequence (P10721 26-976 V559D/T670I): as the sequence (P10721 26-976 A829P) above, with V534D, T645I, P804A counted along it
Protocol: as §1, §2, §3, §4

KIT (V559D) = target: T4, KIT (V559D) (Homo sapiens, UniProt P10721, V559D); test: Kinase binding assay (Kd, qPCR detection)
T4 construct: T7 phage fusion or DNA label for qPCR detection; made in house; host or cells: T7 phage in E. coli BL21-derived host, or HEK-293 cells (both named)
T4 sequence (P10721 26-976 V559D): as the sequence (P10721 26-976 A829P) above, with V534D, P804A counted along it
Protocol: as §1, §2, §3, §4

KIT (D816H) = target: T5, KIT (D816H) (Homo sapiens, UniProt P10721, D816H); test: Kinase binding assay (Kd, qPCR detection)
T5 construct: T7 phage fusion or DNA label for qPCR detection; made in house; host or cells: T7 phage in E. coli BL21-derived host, or HEK-293 cells (both named)
T5 sequence (P10721 26-976 D816H): as the sequence (P10721 26-976 A829P) above, with D791H, P804A counted along it
Protocol: as §1, §2, §3, §4

KIT (V559D, V654A) = target: T6, KIT (V559D, V654A) (Homo sapiens, UniProt P10721, V559D/V654A); test: Kinase binding assay (Kd, qPCR detection)
T6 construct: T7 phage fusion or DNA label for qPCR detection; made in house; host or cells: T7 phage in E. coli BL21-derived host, or HEK-293 cells (both named)
T6 sequence (P10721 26-976 V559D/V654A): as the sequence (P10721 26-976 A829P) above, with V534D, V629A, P804A counted along it
Protocol: as §1, §2, §3, §4

KIT (L576P) = target: T7, KIT (L576P) (Homo sapiens, UniProt P10721, L576P); test: Kinase binding assay (Kd, qPCR detection)
T7 construct: T7 phage fusion or DNA label for qPCR detection; made in house; host or cells: T7 phage in E. coli BL21-derived host, or HEK-293 cells (both named)
T7 sequence (P10721 26-976 L576P): as the sequence (P10721 26-976 A829P) above, with L551P, P804A counted along it
Protocol: as §1, §2, §3, §4

[1] = test system: c-kit phosphorylation and downstream signaling (p-STAT5, p-AKT, p-ERK) in HMC-1.2 cell line; test: Western blot of c-kit phosphorylation and downstream signaling in HMC-1.2; type: cell-based; settings: FIG. 6
Protocol: Specifically, the c-kit D816V mutant Ba/F3 cell line was dispensed at a concentration of 1×10^6 cells/ml, treated with each of the control compounds and PHI-101 at concentrations of 0.1, 1 and 10 μM, and then cultured for 2 hours. Next, lysates of the cells were obtained using lysis buffer (50 mM Tris-HCl pH 7.5, 1% NP40, 1 mM EDTA, 150 mM NaCl, 5 mM, Na3VO4 and 2.5 mM NaF, and a protease inhibitor cocktail). Equal amounts of the cell lysates were electrophoresed using 8% SDS-PAGE gel at 100 V for 1 hour and 30 minutes, and the separated protein was electrically transferred to nitrocellulose membranes. The membranes were blocked with 5% skim milk at room temperature for 30 minutes, and allowed to react with primary antibodies (diluted 1:5,000), including p-c-kit tyrosine 719 (Y719), p-STAT3 tyrosine 705 (Y705) and p-ERK1/2 threonine 202/tyrosine 204 (T202/Y204) at 4° C. for 16 to 20 hours. […] Next, the membranes were washed three times with TBST for 5 minutes each time and treated with a chemiluminescent substrate reagent, and the expression level of the protein was measured by detecting luminescence with an X-ray film in the dark.
The inhibitory activities of control compounds and PHI-101 against c-kit phosphorylation and downstream signaling (p-STAT5, p-AKT, p-ERK) in a mastocytosis cell line were measured, and as the control compounds, imatinib and sunitinib were used. […]

[2] = test system: Ba/F3 cell line with a c-kit D816V mutation; test: Growth inhibition of c-kit D816V Ba/F3 cell line (Celltiter glo); type: cell-based; settings: GI50 comparison, Table 1
Protocol: Specifically, 100 μl of a Ba/F3 cell line with a c-kit D816V mutation (FIG. 1) was added to each well of a 96-well plate at a concentration of 10,000 cells/100 μl. After 4 hours, 100 μl of the Ba/F3 cell line was treated with 0.5 μl of each of control compounds and PHI-101 (10-point 1:3 serial dilutions) to a final concentration of up to 50 μM, and cultured at 37° C. under 5% CO2 for 72 hours. As the control compounds, imatinib and sunitinib which are c-kit inhibitors were used. After culture, the cells were counted using a Celltiter glo assay kit (Promega), and the 50% growth inhibition values (GI50, μM) of the control compounds and PHI-101 were measured.

T1 sequence (P10721 26-976 D816V): as the sequence (P10721 26-976 A829P) above, with D791V, P804A counted along it

Kd (KIT (D816V)): 2.1 nM
Kd (KIT (A829P)): 1.3 nM
Kd (KIT (V559D, T670I)): 27 nM
Kd (KIT (V559D)): 16 nM
Kd (KIT (D816H)): 4.8 nM
Kd (KIT (V559D, V654A)): 26 nM
Kd (KIT (L576P)): 39 nM
Structure (SMILES): NC(=O)Nc1cc(C#Cc2cccc(F)c2)sc1C(=O)N[C@H]1CCCNC1 [PHI-101]
downstream signaling inhibition ([1]; 0.1 μM): strongly inhibited downstream signaling
c-kit phosphorylation and downstream signaling ([1]; 0.01, 0.1 and 1 μM): decreased c-kit phosphorylation and downstream signaling in a concentration-dependent manner
selectivity for c-kit D816V Ba/F3 over parental Ba/F3 [2]: higher selectivity for the c-kit D816V Ba/F3 mutant cell line than for the parental Ba/F3 cell line
